Assays:
Format in all cases: physicochemical
[1] = Peak absorption and order parameter of Lumogen dyes in nematic liquid crystal
Source text: Light fast rylene type dyes are commercially sold by BASF under the name Lumogen.

[2] = Maximum solubility in nematic liquid crystal mixture MLC6653; details: nematic LC (MLC6653 named)
Source text: As is apparent from the table above, these dyes suffer from a low order parameter. The Lumogen IR 765 and Lumogen IR788 have poor fluorescence and have no significant solubility (<<0.1 wt %) in commercial liquid crystal mixture MLC6653 from (Merck Darmstadt), a nematic liquid crystal mixture with positive dielectric anisotropy and a positive delta n.

[3] = Solubility in fluorinated liquid crystal
[4] = Fluorescence / quantum yield
Source text: As a fourth requirement, the fluorescent dichroic dye should have high quantum efficiency. The quantum efficiency is the ratio of emitted photons to absorbed photons of the dye. The higher the quantum efficiency of the dye, the better the dye fluoresces. A good fluorescent dye has a quantum efficiency of at least 0.5, but preferably close to 1.

Light fastness = details: in words
Source text: As a third requirement, a high light stability of the dye is desirable. A high light stability allows a long lifetime of the devices in high power conditions such as sunlight, lasers or interior lighting.

[5] = Dichroic ratio in a liquid crystal host
Source text: The purpose of these LC-dye mixtures is to be able to control the absorption or fluorescence emission (or both) of light by the dye. A measure of how well the absorption can be controlled is the dichroic ratio of the dye in the LC mixture. The dichroic ratio is the ratio in absorption for light coming in parallel to the absorption axis of the molecule (A∥) versus light traveling perpendicular to the absorption axis (A—|—):
DR=A∥/A—|—. Another way of expressing the same property is the order parameter (S), which is defined as […]

Row | Peak absorption ([1]; in nematic LC) [nm] | order parameter in nematic LC ([1]; nematic LC) | maximum solubility [2] [wt %] | SMILES | solubility [3] [wt %] | quantum yield ([4]; apolar solvents (cyclohexane)) | light fastness (Light fastness) | dichroic ratio [5] | fluorescence ([4]; in words)
1 | 577.5 | −0.12 | 0.2 | CC(C)c1cccc(C(C)C)c1N1C(=O)c2cc(Oc3ccccc3)c3c4c(Oc5ccccc5)cc5c6c(cc(Oc7ccccc7)c(c7c(Oc8ccccc8)cc(c2c37)C1=O)c64)C(=O)N(c1c(C(C)C)cccc1C(C)C)C5=O [Lumogen F red 305] | – | – | – | – | –
2 | – | – | – | CCCCCCC(CCCCCC)N1C(=O)c2ccc3c4ccc5c6c(ccc(c7ccc(c2c37)C1=O)c64)C(=O)N(c1ccc(-c2ccc3c4ccc6c7c(ccc(c8cccc2c83)c74)C(=O)N(c2c(C(C)C)cccc2C(C)C)C6=O)cc1)C5=O [PBI-PMI, 2-(4-(2-(2,6-diisopropylphenyl)-1,3-dioxo-2,3-dihydro-1H-benzo[5,10]anthra[2,1,9-def]isoquinolin-8-yl)phenyl)-9-(tridecan-7-yl)anthra[2,1,9-def:6,5,10-d′e′f′]diisoquinoline-1,3,8,10(2H,9H)-tetraone] | > 0.2 | 0.77 | comparable to the lightfastness of the single perylene bisimide | 14 | –
3 | – | – | – | CCCCCCCCCCCCC1(CCCCCCCCCCCC)c2cc(N3C(=O)c4ccc5c6ccc7c8c(ccc(c9ccc(c4c59)C3=O)c86)C(=O)N(C(CCCCCC)CCCCCC)C7=O)ccc2-c2ccc(N3C(=O)c4ccc5c6ccc7c8c(ccc(c9ccc(c4c59)C3=O)c86)C(=O)N(C(CCCCCC)CCCCCC)C7=O)cc21 [PFP] | 0.2 | – | good | 12 | good
